PMC6742641, “Design, synthesis and biological evaluation of a series of CNS penetrant HDAC inhibitors structurally derived from amyloid-β probes” (Scientific Reports, 2019)

Experiments:
[1] = tested on: SH-SY5Y cells; test: Cell proliferation (anti-proliferation) assay, MTS; format: cell-based, human
Experimental: SH-SY5Y cells were grown in DMEM with L-glutamin supplemented with streptomycin ([…]), penicillin (100 units/mL), and 10% fetal bovine serum (FBS). Cells were grown to confluence in a humidified atmosphere (37 °C, 5% CO2).
SH-SY5Y cells (1.5 × 10^3 cells/well) were seeded in a clear 96-well plate, the medium volume was brought to 100 µL, and the cells were allowed to attach overnight. The next day, various concentrations of compounds or DMSO were added to the wells. Cells were then incubated at 37 °C for 24, 48 and 72 h. Cell viability was determined using the Promega Cell Titer 96 Aqueous One Solution cell proliferation assay. Absorbance at 490 nm was read on Tecan Infinite F200 Pro plate reader, and values were expressed as percent of absorbance from cells incubated in DMSO alone.

[2] = molecular target: T1, HDAC6 (Homo sapiens, UniProt Q9UBN7); test: HDAC activity assay (fluorimetric, BPS Biosciences); format: biochemical; conditions: class IIb in Table 4; mean ± SD (n = 2)
T1 construct: purchased BPS Biosciences
T1 sequence (Q9UBN7 1-1215): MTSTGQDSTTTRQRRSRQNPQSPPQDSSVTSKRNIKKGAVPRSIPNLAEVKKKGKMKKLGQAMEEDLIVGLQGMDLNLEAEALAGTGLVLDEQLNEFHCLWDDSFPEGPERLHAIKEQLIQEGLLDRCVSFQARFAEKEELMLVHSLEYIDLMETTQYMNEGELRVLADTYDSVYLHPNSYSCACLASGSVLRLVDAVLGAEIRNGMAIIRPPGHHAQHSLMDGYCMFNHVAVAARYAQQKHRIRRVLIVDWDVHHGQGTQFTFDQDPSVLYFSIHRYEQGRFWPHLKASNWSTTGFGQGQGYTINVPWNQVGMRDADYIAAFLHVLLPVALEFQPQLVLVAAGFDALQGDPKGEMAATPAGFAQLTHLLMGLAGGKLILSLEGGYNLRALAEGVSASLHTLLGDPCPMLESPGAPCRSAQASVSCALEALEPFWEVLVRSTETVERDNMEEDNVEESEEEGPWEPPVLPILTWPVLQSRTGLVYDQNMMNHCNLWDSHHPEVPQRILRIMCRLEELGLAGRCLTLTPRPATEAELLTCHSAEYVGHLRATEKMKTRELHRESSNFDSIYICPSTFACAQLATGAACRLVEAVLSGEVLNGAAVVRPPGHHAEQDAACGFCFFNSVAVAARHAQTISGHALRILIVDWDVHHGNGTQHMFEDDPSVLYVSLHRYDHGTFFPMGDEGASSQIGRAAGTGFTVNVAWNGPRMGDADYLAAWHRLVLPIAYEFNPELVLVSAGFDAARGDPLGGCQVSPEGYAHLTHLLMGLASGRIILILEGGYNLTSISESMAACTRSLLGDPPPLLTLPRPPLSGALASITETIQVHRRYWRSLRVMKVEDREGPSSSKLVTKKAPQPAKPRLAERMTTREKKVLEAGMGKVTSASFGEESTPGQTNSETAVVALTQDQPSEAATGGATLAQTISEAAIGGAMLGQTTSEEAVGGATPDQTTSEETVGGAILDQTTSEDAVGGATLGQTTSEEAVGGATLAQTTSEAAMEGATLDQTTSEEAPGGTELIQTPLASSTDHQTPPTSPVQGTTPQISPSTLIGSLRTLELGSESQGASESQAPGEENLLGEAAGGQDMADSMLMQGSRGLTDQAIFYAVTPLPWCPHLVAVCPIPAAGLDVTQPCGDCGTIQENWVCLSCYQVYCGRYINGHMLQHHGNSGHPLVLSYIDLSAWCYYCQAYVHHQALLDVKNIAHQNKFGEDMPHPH
Experimental: (§1) HDAC1, 3, 6 and 7 activity assays were performed according to the manufacturer’s protocol (BPS Biosciences). […] The HDAC assay developer was added to the mixture and incubated the plate at rt for 15 min. The fluorescence intensity was measured using a Tecan Infinite F200 Pro plate reader.

[3] = molecular target: T2, HDAC1 (Homo sapiens, UniProt Q13547); test: as above; format: biochemical; conditions: class I; mean ± SD (n = 2)
T2 construct: purchased BPS Biosciences
T2 sequence (Q13547 whole entry): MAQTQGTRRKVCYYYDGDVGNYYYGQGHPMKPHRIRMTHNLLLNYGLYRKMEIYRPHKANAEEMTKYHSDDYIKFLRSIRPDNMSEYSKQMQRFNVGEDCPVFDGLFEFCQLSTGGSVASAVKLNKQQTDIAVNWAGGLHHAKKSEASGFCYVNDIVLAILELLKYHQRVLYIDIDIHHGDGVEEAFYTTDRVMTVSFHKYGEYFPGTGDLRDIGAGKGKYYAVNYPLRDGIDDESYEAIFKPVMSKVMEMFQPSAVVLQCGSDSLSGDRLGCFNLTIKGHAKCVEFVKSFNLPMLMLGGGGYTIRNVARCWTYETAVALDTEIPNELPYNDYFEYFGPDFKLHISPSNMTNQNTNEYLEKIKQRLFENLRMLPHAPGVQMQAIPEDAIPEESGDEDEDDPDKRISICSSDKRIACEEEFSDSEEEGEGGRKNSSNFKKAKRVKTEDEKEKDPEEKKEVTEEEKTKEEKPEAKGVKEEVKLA
Experimental: as §1

[4] = molecular target: T3, HDAC3 (Homo sapiens, UniProt O15379); test: as above; format: biochemical; conditions: class I; mean ± SD (n = 2)
T3 construct: purchased BPS Biosciences
T3 sequence (O15379 whole entry): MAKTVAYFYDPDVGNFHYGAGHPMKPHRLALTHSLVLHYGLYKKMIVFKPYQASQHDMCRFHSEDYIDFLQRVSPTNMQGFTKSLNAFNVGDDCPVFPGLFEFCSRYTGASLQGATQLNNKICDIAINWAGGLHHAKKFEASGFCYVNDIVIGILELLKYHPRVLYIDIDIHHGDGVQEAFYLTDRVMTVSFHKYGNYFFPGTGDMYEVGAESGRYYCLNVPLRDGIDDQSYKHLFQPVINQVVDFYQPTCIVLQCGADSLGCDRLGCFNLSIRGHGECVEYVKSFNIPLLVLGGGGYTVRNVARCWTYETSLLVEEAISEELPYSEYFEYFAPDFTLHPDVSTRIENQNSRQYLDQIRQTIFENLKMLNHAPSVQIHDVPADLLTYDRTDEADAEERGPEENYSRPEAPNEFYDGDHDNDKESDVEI
T3 sequence (Q9Y618 395-489 partner limits assumed): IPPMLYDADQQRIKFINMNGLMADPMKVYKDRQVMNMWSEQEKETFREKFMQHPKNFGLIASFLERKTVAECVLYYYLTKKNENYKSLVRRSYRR
Experimental: as §1

[5] = molecular target: T4, HDAC7 (Homo sapiens, UniProt Q8WUI4); test: as above; format: biochemical; conditions: class IIa in Table 4; mean ± SD (n = 2)
T4 construct: purchased BPS Biosciences
T4 sequence (Q8WUI4 1-952): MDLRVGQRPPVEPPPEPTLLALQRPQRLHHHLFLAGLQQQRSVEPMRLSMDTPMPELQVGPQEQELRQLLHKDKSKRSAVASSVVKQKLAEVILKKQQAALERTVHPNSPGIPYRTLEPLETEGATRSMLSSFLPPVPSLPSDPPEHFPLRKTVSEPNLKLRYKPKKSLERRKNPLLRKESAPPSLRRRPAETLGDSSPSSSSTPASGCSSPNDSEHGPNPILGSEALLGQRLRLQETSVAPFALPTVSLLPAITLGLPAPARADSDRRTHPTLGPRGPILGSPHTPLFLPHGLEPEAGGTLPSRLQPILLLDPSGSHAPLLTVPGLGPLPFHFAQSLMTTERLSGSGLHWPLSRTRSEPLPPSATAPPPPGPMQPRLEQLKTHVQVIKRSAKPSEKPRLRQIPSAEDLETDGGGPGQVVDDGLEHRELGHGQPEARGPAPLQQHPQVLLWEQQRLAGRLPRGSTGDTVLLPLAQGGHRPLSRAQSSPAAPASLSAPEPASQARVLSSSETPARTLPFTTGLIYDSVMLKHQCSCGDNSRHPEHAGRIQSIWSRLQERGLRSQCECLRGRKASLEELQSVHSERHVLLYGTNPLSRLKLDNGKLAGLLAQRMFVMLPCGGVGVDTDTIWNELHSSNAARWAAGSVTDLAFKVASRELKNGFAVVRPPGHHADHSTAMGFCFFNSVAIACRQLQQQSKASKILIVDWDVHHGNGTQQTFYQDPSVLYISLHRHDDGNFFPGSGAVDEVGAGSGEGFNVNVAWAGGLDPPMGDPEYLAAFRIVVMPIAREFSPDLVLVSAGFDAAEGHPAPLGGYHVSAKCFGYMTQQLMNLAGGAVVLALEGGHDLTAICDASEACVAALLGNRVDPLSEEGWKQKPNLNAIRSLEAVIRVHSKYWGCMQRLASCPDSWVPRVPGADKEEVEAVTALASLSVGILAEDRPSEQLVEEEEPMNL
Experimental: as §1

GI50 ([1]; Homo sapiens, SH-SY5Y neuroblastoma cell line, 72 h, mean ± SD (n = 4)): 2.01 ± 0.33 µM | IC50 ([1]; Homo sapiens, SH-SY5Y, Table 1 values IC50, read-out: anti-proliferative activity IC50 against SH-SY5Y cell line): 2010 nM | IC50 [2]: 95.9 ± 0.78 nM | IC50 [3]: 84.9 ± 25.1 nM | IC50 [4]: 142 ± 45.7 nM | IC50 [5]: 3.04 µM
SMILES: O=C(NO)c1ccc(-c2nc3ccccc3s2)cc1 [Compound 9b]
SH-SY5Y cell growth impaired ([1]; 5 μM, 72 hours): ~73%
